# Source: patent US11643421B2, “Process for the preparation of tricyclic PI3K inhibitor compounds and methods for using the same for the treatment of cancer” (priority 2015, dated 2023)
# Assays:
# [1] = In vivo pharmacokinetics IV and PO; parameters: species or system Male Sprague-Dawley rats; conditions: Rat
# Method: (§1) The hepatocyte stability of compound IIIat was evaluated across preclinical species. Certain in vivo pharmacokinetic parameters were also evaluated. […] Male Sprague-Dawley rats, female CD-1 mice, male cynomolgus monkeys and beagle dogs were dosed intravenously with 1 mg/kg of compound IIIat prepared in 60% PEG400/10% Ethanol. Compound IIIat was administered orally (PO) at the indicated dose in 0.5% methylcellulose with 0.2% Tween 80 (MCT).
# ZAP-70 = ZAP-70 (Homo sapiens, UniProt P43403); experiment: biochemical; conditions: read-out: % inhib
# U87 intracranial tumors = experiment: Efficacy in U87 intracranial model; type: in vivo, mice; conditions: 15 mg/kg PO daily for 2 weeks, micro-CT
# From the text: These U87 and GS2 models are PTEN-deficient, with the GS2 cell line presenting a copy number loss at the PTEN locus (Gunther H S, et al.) with no detectable PTEN protein by western blot (Carlson […], Schroeder […]., “Establishment, maintenance and in vitro and in vivo applications of primary human glioblastoma multiforme (GBM) xenograft models for translational biology studies and drug discovery”, Curr Protoc Pharmacol. 2011; Chapter 14: Unit 14 16). The identity of the two cell lines was confirmed by STR profiling (DNA Diagnostics Center) using cells within 5 passages of those utilized for in vivo studies. […] The differences between treatment groups were evaluated using Student's t test in Prism (Prism 5, GraphPad). […] Body temperature was continuously monitored using a rectal probe and was maintained at 37° C. by a heated-air flow system regulated by in-house LabVIEW controller software. […] 12-20 axial 0.5-0.8 mm-thick slices were acquired with a 20×20 mm field of view (FOV), and 128×128 matrix, zero-filled to 256×256 mages. […] Brain sample preparation, micro-CT scanning, and image analysis for ex-vivo micro-CT imaging were performed as described previously (de […], Nishimura M C, Phillips H, Carano […] micro-CT imaging of the postmortem brain”, J. Neurosci. Methods. 2008; 171 (2): 207-213).
# EphA2 = EphA2 (Homo sapiens, UniProt P29317); experiment: biochemical; conditions: read-out: % inhib
# [2] = MALDI imaging of brain distribution, U87 orthotopic model; type: in vivo, female nude mice; conditions: 15 mg/kg PO, 1 hour post dose
# Method: Mice were euthanized at 1 and 6 hours post-dose via exsanguination by perfusion under anesthesia. Brains were excised, flash frozen in liquid N2 and stored in a −80° C. freezer until analyzed. Fresh frozen tissue sections were obtained on a cryomicrotome (Leica CM3050S, Buffalo Grove, Ill.) at 12 μm thickness and thaw-mounted onto indium tin oxide coated glass slides (Bruker Daltonics, Billerica, Mass.). Tissue sections were an analyzed by imaging MALDI MS, providing signal intensities (and not absolute quantitation), followed by cresyl violet staining for histological interrogation.
# For MALDI MAS analysis, a 40 mg/mL solution of 2,5-dihydroxybenzoic acid (Sigma-Aldrich, St. Louis, Mo.) was prepared in methanol:water (70:30 v/v). […] Matrix solution was homogenously spray-coated onto the tissue using a HTX TM-Sprayer (HTX technologies. Chapel Hill, N.C.). Matrix-coated tissue sections were transferred to the MALDI mass spectrometer (SolariX 7T FT-ICR, Bruker Daltonics, Bremen, Germany) for imaging analysis. […] Laser intensity and number of shots were optimized for sensitivity of the parent drug (1200 shots) with ion detection collected over the mass range of m/z 150-3000.
# Following completion of the imaging experiments, matrix coaling was removed by rinsing the glass slide in 100% methanol for 30 seconds or until the entire matrix was visibly removed. […] Microscope images were obtained on an Olympus BX51 (Tokyo, Japan) at 10× magnification and stitched using MicroSuite Analytical v3.0 software (Olympus, Tokyo, Japan). Subsequently, stained images were co-registered to the optical images in FlexImaging for visualization and annotation of tumor and non-tumor regions for the drug images.
# To assess drug distribution, imaging MALDI MS data from U87 and GS2 tumor models were co-registered to the cresyl violet stained microscope images in FlexImaging Regions of interest (ROIs) that were selected based on the anatomical features defined in the histological image including tumor and non-tumor regions. Drug intensity for each pixel within the defined ROI was extracted and exported. […] Histogram plots were created in GraphPad Prism 5 to visualize the distribution of pixel intensity frequencies.
# MYLK2 (skMLCK) = MYLK2 (skMLCK) (Homo sapiens, UniProt Q9H1R3); experiment: biochemical; conditions: read-out: % inhib
# [3] = In vivo pharmacokinetics IV and PO; parameters: species or system female CD-1 mice; conditions: Mouse
# Method: as §1
# [4] = Solubility in mono- and ternary-solvent systems; type: physicochemical; conditions: 50° C.
# AKT1 = AKT1 (Homo sapiens, UniProt P31749); experiment: biochemical; conditions: read-out: % inhib
# PAK2 = PAK2 (Homo sapiens, UniProt Q13177); experiment: biochemical; conditions: read-out: % inhib
# high-grade gliomas = experiment: Phase I study, exploratory MRI; type: in vivo, human; conditions: 34 patients, Ktrans, cerebral blood volume, apparent diffusion coefficient
# Method: Thirty-four patients were evaluated by exploratory magnetic resonance imaging (“MRI”). […] The Ktrans changes were within the likely noise range of the measurement (based on variability in low-exposure cohorts).
# NEK7 = NEK7 (Homo sapiens, UniProt Q8TDX7); experiment: biochemical; conditions: read-out: % inhib
# InsR = InsR (Homo sapiens, UniProt P06213); experiment: biochemical; conditions: read-out: % inhib
# InsR, sequence (P06213 28-1382, species assumed): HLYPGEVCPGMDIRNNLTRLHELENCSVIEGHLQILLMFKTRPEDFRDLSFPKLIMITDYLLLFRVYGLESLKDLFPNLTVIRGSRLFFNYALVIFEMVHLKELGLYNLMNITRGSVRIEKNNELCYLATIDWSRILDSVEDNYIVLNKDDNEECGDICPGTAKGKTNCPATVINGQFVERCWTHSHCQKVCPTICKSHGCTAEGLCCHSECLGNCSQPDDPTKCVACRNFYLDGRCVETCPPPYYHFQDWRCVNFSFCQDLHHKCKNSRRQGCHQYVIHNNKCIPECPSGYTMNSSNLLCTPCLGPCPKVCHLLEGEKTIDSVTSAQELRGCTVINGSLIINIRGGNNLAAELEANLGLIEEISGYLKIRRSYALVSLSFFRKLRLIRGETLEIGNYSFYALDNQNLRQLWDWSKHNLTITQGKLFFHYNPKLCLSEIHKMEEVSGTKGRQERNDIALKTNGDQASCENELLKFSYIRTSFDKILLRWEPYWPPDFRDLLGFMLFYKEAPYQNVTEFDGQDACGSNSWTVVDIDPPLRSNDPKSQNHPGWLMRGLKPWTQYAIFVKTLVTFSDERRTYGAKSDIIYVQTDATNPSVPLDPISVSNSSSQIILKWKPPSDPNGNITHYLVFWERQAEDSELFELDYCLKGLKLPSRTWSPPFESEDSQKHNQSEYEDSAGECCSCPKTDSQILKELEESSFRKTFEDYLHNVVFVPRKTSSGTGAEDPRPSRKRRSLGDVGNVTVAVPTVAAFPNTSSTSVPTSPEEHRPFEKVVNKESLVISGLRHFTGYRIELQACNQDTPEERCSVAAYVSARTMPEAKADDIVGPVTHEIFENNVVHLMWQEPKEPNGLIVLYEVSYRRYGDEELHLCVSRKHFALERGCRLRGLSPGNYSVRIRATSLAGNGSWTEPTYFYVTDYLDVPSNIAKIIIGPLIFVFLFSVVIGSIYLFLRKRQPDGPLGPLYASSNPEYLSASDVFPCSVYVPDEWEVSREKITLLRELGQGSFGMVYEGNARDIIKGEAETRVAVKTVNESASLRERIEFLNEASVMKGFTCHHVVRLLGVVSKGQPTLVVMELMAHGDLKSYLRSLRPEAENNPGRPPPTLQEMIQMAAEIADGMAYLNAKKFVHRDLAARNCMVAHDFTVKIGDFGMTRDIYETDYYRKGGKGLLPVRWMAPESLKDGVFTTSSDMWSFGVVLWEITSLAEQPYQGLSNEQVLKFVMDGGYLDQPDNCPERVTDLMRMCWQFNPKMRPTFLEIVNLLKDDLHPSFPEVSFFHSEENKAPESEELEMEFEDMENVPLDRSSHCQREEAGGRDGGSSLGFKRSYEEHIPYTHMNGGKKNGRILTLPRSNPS
# ZAP-70, sequence (P43403 whole entry, species assumed): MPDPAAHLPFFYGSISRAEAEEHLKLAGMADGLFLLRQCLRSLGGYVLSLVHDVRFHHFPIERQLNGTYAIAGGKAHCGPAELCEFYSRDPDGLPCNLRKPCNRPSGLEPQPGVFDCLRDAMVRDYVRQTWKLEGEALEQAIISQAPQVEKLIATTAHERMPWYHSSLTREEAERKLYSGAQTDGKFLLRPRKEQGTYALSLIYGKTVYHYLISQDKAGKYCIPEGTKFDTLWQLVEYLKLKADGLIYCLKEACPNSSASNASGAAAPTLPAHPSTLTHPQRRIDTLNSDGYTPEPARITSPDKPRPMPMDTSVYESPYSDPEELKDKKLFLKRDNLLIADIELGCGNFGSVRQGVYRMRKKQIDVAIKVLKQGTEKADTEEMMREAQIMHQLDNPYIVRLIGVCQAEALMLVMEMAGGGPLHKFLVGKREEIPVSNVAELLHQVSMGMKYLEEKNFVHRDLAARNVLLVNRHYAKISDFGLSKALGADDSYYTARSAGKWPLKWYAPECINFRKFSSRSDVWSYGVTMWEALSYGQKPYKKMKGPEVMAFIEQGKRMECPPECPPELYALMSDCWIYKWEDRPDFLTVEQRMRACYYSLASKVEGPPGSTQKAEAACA
# EphA2, sequence (P29317 24-976, species assumed): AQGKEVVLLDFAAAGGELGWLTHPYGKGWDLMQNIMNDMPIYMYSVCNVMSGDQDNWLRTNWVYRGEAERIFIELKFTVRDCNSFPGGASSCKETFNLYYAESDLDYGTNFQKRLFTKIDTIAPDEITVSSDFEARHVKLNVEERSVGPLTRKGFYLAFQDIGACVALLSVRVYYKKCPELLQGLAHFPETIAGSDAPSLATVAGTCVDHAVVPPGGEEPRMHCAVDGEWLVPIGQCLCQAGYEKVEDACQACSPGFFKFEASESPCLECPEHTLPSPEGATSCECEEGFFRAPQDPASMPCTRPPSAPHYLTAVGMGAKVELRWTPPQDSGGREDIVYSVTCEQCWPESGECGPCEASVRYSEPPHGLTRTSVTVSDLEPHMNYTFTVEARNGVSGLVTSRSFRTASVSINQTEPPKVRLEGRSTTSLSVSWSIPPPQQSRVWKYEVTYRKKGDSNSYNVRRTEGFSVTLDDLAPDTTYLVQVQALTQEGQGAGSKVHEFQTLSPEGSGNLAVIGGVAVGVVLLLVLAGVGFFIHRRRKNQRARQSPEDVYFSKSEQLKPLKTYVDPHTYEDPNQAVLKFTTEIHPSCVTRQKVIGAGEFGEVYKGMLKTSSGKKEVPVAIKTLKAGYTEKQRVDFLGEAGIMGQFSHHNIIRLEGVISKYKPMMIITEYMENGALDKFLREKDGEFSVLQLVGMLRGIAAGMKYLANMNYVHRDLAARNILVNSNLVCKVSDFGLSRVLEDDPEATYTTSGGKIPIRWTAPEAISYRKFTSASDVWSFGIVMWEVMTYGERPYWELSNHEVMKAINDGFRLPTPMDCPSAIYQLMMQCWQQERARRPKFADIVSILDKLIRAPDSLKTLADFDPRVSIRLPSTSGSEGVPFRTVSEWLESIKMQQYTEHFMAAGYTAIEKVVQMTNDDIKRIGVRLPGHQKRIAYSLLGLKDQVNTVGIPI
# AKT1, sequence (P31749 whole entry, species assumed): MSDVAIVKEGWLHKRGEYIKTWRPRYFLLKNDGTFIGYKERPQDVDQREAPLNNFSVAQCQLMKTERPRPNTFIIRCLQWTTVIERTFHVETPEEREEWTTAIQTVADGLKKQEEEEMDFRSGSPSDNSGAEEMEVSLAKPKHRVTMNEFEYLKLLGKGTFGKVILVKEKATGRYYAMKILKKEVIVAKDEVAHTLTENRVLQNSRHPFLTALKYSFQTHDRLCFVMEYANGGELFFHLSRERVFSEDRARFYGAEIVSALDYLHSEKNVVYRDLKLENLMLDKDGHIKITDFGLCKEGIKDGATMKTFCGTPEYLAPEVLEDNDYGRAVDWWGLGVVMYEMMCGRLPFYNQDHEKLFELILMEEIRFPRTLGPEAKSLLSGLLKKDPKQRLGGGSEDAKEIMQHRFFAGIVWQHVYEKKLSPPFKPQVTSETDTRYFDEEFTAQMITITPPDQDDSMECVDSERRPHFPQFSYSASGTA
# PAK2, sequence (Q13177 whole entry, the tested form may be a part): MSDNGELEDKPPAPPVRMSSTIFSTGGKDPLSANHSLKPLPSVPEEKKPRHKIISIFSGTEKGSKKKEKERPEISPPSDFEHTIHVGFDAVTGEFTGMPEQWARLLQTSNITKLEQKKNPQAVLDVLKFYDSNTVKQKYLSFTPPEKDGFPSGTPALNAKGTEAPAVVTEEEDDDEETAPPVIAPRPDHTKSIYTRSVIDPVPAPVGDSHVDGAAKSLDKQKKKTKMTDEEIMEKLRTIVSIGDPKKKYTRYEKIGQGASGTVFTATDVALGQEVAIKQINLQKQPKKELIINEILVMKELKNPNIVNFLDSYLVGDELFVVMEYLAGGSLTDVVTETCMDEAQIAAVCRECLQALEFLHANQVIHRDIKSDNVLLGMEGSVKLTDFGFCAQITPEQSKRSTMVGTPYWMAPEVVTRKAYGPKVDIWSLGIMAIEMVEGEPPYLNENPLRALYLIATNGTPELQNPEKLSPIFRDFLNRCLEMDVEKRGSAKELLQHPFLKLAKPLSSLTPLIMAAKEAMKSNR
# MYLK2 (skMLCK), sequence (Q9H1R3 whole entry): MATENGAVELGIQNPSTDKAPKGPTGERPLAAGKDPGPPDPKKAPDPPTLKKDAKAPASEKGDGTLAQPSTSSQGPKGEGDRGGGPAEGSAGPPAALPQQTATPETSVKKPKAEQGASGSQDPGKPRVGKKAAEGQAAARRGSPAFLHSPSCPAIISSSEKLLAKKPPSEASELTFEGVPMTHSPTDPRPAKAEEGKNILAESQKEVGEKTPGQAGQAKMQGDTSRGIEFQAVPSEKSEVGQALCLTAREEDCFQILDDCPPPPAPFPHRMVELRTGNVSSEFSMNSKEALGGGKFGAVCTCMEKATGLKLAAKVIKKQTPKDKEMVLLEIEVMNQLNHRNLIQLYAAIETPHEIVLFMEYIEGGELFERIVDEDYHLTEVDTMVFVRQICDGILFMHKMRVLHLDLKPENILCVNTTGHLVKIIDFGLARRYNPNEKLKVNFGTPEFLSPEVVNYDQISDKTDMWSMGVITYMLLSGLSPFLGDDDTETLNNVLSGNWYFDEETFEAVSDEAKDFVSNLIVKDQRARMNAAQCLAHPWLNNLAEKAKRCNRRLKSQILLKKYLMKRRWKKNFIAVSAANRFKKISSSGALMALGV
# NEK7, sequence (Q8TDX7 whole entry): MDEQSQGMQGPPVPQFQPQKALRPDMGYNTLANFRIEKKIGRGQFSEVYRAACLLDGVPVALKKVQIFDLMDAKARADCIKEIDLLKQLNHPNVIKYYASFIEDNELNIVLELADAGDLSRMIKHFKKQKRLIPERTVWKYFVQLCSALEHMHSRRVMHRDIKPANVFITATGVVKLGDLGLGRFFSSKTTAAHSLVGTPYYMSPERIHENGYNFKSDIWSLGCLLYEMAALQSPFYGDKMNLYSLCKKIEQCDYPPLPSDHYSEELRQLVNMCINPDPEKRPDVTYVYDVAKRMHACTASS
structure (smiles),measurement,setting,value
"CC1(C)OCCn2c1nc1c(N3CCOCC3)nc(-c3cnc(N)nc3)nc12 [GDC-0084, 5-(6,6-dimethyl-4-morpholino-8,9-dihydro-6H-[1,4]oxazino[3,4-e]purin-2-yl)pyrimidin-2-amine]",In vivo Cl,[1]; IV 1 mg/kg,28 mL/min/kg
same,Cmax,[1]; PO 5 mg/kg in MCT,1.1 μm
same,F %,[1]; PO 5 mg/kg in MCT,77%
same,inhibition at 1 µM,ZAP-70,-0.9%
same,U87 tumor volume reduction versus vehicle control,U87 intracranial tumors,approximately 70%
same,inhibition at 1 µM,EphA2,-0.7%
same,distribution in brain and intracranial tumors (MALDI images),[2]; U87 and GS2 models,distributed readily and quite evenly throughout the brain
same,mean pixel intensity (MALDI imaging),[2]; U87 tumors,0.54
same,mean pixel intensity (MALDI imaging),[2]; healthy brain of U87 tumor-bearing mice,0.54
same,inhibition at 1 µM,MYLK2 (skMLCK),3%
same,In vivo Cl,[3]; IV 1 mg/kg,17 mL/min/kg
same,AUC,[3]; PO 25 mg/kg in MCT,47 μm·h
same,Cmax,[3]; PO 25 mg/kg in MCT,4.6 μm
same,F %,[3]; PO 25 mg/kg in MCT,75%
same,Solubility,[4]; DMF,0.9 wt. %
same,Solubility,[4]; DMF/HOAc/H2O 67:24:9 by volume,0.3 wt. %
same,Solubility,[4]; EtOH,0.1 wt. %
same,Solubility,[4]; EtOH/HOAc/H2O 67:24:9 by volume,1 wt. %
same,Solubility,[4]; HOAc,2.8 wt. %
same,Solubility,[4]; HOAc/HOAc/H2O 67:24:9 by volume,2.1 wt. %
same,Solubility,[4]; MeOH,0.2 wt. %
same,Solubility,[4]; MeOH/HOAc/H2O 67:24:9 by volume,0.4 wt. %
same,Solubility,[4]; MeTHF,0.3 wt. %
same,Solubility,[4]; MeTHF/HOAc/H2O 67:24:9 by volume,2.7 wt. %
same,Solubility,[4]; PhMe,0.1 wt. %
same,Solubility,[4]; THF,0.7 wt. %
same,Solubility,[4]; THF/HOAc/H2O 67:24:9 by volume,3.7 wt. %
same,Solubility,[4]; Toluene/HOAc/H2O 67:24:9 by volume,3.8 wt. %
same,Solubility,[4]; i-BuOH,0.1 wt. %
same,Solubility,[4]; i-BuOHHOAcH2O 67:24:9 by volume,2.1 wt. %
same,Solubility,[4]; n-BuOH,0.1 wt. %
same,Solubility,[4]; n-BuOH/HOAc/H2O 67:24:9 by volume,2.4 wt. %
same,Solubility,[4]; n-PrOH,0.1 wt. %
same,Solubility,[4]; n-PrOH/HOAc/H2O 67:24:9 by volume,1.8 wt. %
same,inhibition at 1 µM,AKT1,0.7%
same,inhibition at 1 µM,PAK2,3%
same,MRI derived metrics versus drug plasma exposure,high-grade gliomas,"none of the MRI derived metrics (Ktrans, Cerebral blood volume, apparent diffusion coefficient) showed any significant trend with drug plasma exposure"
same,inhibition at 1 µM,NEK7,-0.3%
same,inhibition at 1 µM,InsR,6%
